Columns and labels:
[1] = Pharmacokinetic study in plasma after oral hexanic extract of Tagetes lucida, healthy and LPS-damaged mice; format: in vivo, ICR mice; conditions: plasma; for Cmax / AUC(0-inf) / MRT / Tmax / half-life / AUC(0-t): ICR, mouse, po, 10 mg/kg; for Cmax / AUC(0-inf) / MRT / Tmax / half-life / AUC(0-t) / Cl/F: 10 mg/kg oral hexanic extract, mean ± SEM (n = 5); for Cmax: non-compartmental; for AUC(0-t): to 6 h
Experimental: The optimized HPLC-validated method for the quantification of coumarins present in the hexane extract of T. lucida was used to evaluate the concentration profiles over time in the plasma, brain, kidney, and spleen biological matrices after an oral administration of 10 mg/kg of the extract.
Blood samples were obtained from the retro-orbital sinus of mice and collected in heparinized tubes. Plasma was separated by centrifugation at 3500 rpm for 5 min and stored in new Eppendorf tubes at −70 °C, until further processing.
(§1) One hundred microliters of plasma and organs samples, spiked with calibration and QC concentration or samples from the pharmacokinetic study, were mixed with 300 µL of acetonitrile containing the IS at 10 µg/mL for protein precipitation, and vortexed for 3 min. Then, 200 µL of dichloromethane were added, for liquid–liquid extraction of the bioactive compounds, and vortexed for 5 min. The mixture was centrifuged at 14,000 rpm for 10 min, and the extracted organic layers were placed in new tubes, until completely dry at room temperature. For quantitative analysis, samples were resuspended in 100 µL of methanol, transferred to sampling vials, and injected into the chromatographic system, described below.
A pharmacokinetic study was carried out in sixty mice, divided in six subgroups, according to sample collection times. An acute inflammation process by the intraperitoneal (i.p.) administration of LPS at 2 mg/kg was induced in half of the mice per group, while the other half received an i.p. injection of saline solution. Ten min after the damage was induced, the mice were administered with an oral dose of 10 mg/kg of the bioactive fraction dissolved in a 1% Tween-20 aqueous solution. Blood and tissue samples were obtained and processed at 0, 0.25, 0.75, 1.5, 2, 4, and 6 h post-dosing, as indicated in the “Samples collection” and “Plasma and tissue samples processing” sections.
Pharmacokinetic parameters of PE, SC, DF, HR, and PU in plasma were calculated by PKSolver software.

[2] = Tissue distribution in the brain after oral hexanic extract of Tagetes lucida, healthy and LPS-administrated mice; format: in vivo, ICR mice; conditions: after the initial absorption process
Experimental: After blood sampling, the mice were sacrificed in a chamber with chloroform by an overdose of anesthesia. The brain, kidney, and spleen were quickly removed and rinsed with saline solution, fresh weight was recorded, and immediately placed on ice. Subsequently, the organs were freeze-dried, grounded, and weighted. The lyophilized organs were individually suspended in methanol in a 1:1 volume: dry weight ratio for 24 h, then sonicated for 5 min and centrifuged at 14,000 rpm for 7 min. The supernatants were recovered in clean tubes and stored at −70 °C until their use.
as §1
A pharmacokinetic study was carried out in sixty mice, divided in six subgroups, according to sample collection times. An acute inflammation process by the intraperitoneal (i.p.) administration of LPS at 2 mg/kg was induced in half of the mice per group, while the other half received an i.p. injection of saline solution. Ten min after the damage was induced, the mice were administered with an oral dose of 10 mg/kg of the bioactive fraction dissolved in a 1% Tween-20 aqueous solution. […]
To evaluate the distribution in the tissues, bioactive coumarins were quantified in the lyophilized organs, and concentrations were adjusted to the volumes of liquid obtained by the difference between the dry and fresh weights of each tissue to simulate a distribution approximation of the compounds by tissue system.

[3] = Stability of the analytes in spiked plasma, brain, kidney and spleen matrices (autosampler, long-term, freeze-thaw); format: physicochemical, mice; conditions: for Stability Autosampler RE (%): processed samples in autosampler vials 24 h room temperature; for Stability Freeze-Thaw RE (%): three cycles (−4 °C to 25 °C); for Stability Long-Term RE (%): −70 °C for 30 days
Experimental: The stability of the compounds obtained from each enriched matrices at the QC concentrations was evaluated under different conditions that covered the processing, handling, and storage phases that could be developed throughout the study.
Individual stock solutions of PE, SC, DF, HR, PU, and rutin (IS) were prepared separately in methanol (1 mg/mL) and stored at −4 °C until use. From the stocks, a working solution in methanol was prepared at a concentration of 200 µg/mL of each coumarin. Blank plasma or organs supernatant samples (80 µL) were spiked with 20 µL of serial dilutions of working solution to obtain calibration curves ranging between 0.156, 0.312, 0.625, 1.25, 2.5, 5, 10, 20, and 40 µg/mL of each coumarin. Quality control (QC) samples were prepared at three levels of 0.3 (low), 3 (medium), and 30 (high) µg/mL for each coumarin.
The stability of the analytes in plasma, brain, kidneys, and spleen was evaluated by the analyzed concentrations of QC subjected to three different conditions. Short-term stability was determined by analysis of samples processed in the autosampler vials at 24 h at room temperature. Long-term stability was tested on samples stored at −70 °C for 30 days. Freeze-thaw stability was determined after three cycles (−4 °C to 25 °C) on three consecutive days.

[4] = parameters: method as in PMID 22465507; conditions: rats, distribution of SC in different organs; cited from earlier work

COc1cc2ccc(=O)oc2cc1OC [SC, scoparone]
Cmax ([1]; LPS-damaged ICR mice (LPS 2 mg/kg i.p.)): 1280 ± 110 ng/mL | AUC(0-inf) ([1]; LPS-damaged ICR mice): 2780 ± 210 ng·h/mL | MRT ([1]; LPS-damaged ICR mice): 2.26 ± 0.17 h | Tmax ([1]; LPS-damaged ICR mice): 0.7 ± 0.34 h | half-life ([1]; LPS-damaged ICR mice): 0.65 ± 0.06 h | AUC(0-t) ([1]; LPS-damaged ICR mice): 2770 ± 210 ng·h/mL | AUC(0-inf) ([1]; healthy ICR mice): 4030 ± 630 ng·h/mL | MRT ([1]; healthy ICR mice): 4.68 ± 1.16 h | Tmax ([1]; healthy ICR mice): 1.25 ± 0.25 h | half-life ([1]; healthy ICR mice): 2.88 ± 0.83 h | Cmax ([1]; healthy ICR mice): 970 ± 100 ng/mL | AUC(0-t) ([1]; healthy ICR mice): 2870 ± 90 ng·h/mL | pharmacokinetic characteristics in words ([1]; LPS-treated mice, Figure 3b, 3c): fast distribution and subsequent elimination | Cl/F ([1]; LPS-damaged ICR mice): 36.52 ± 2.68 (mg/kg)/(μg/mL)/h | Cl/F ([1]; healthy ICR mice): 26.64 ± 3.00 (mg/kg)/(μg/mL)/h | time at which the highest concentration in the brain tissue is reached [2]: 15 min | Stability Autosampler RE (%) ([3]; brain, nominal 0.3 µg/mL): -2.15% | Stability Freeze-Thaw RE (%) ([3]; brain, nominal 0.3 µg/mL): -1.98% | Stability Long-Term RE (%) ([3]; brain, nominal 0.3 µg/mL): -0.19% | Stability Autosampler RE (%) ([3]; brain, nominal 3.0 µg/mL): 0.37% | Stability Freeze-Thaw RE (%) ([3]; brain, nominal 3.0 µg/mL): -3.09% | Stability Long-Term RE (%) ([3]; brain, nominal 3.0 µg/mL): -0.94% | Stability Autosampler RE (%) ([3]; brain, nominal 30.0 µg/mL): 4.78% | Stability Freeze-Thaw RE (%) ([3]; brain, nominal 30.0 µg/mL): -2.00% | Stability Long-Term RE (%) ([3]; brain, nominal 30.0 µg/mL): -4.75% | Stability Autosampler RE (%) ([3]; kidney, nominal 0.3 µg/mL): 7.01% | Stability Freeze-Thaw RE (%) ([3]; kidney, nominal 0.3 µg/mL): 2.62% | Stability Long-Term RE (%) ([3]; kidney, nominal 0.3 µg/mL): 3.92% | Stability Autosampler RE (%) ([3]; kidney, nominal 3.0 µg/mL): 5.72% | Stability Freeze-Thaw RE (%) ([3]; kidney, nominal 3.0 µg/mL): 1.51% | Stability Long-Term RE (%) ([3]; kidney, nominal 3.0 µg/mL): 2.63% | Stability Autosampler RE (%) ([3]; kidney, nominal 30.0 µg/mL): -0.35% | Stability Freeze-Thaw RE (%) ([3]; kidney, nominal 30.0 µg/mL): 0.49% | Stability Long-Term RE (%) ([3]; kidney, nominal 30.0 µg/mL): 4.36% | Stability Autosampler RE (%) ([3]; plasma, nominal 0.3 µg/mL): 10.18% | Stability Freeze-Thaw RE (%) ([3]; plasma, nominal 0.3 µg/mL): -14.02% | Stability Long-Term RE (%) ([3]; plasma, nominal 0.3 µg/mL): -3.50% | Stability Autosampler RE (%) ([3]; plasma, nominal 3.0 µg/mL): 8.27% | Stability Freeze-Thaw RE (%) ([3]; plasma, nominal 3.0 µg/mL): 2.70% | Stability Long-Term RE (%) ([3]; plasma, nominal 3.0 µg/mL): -14.30% | Stability Autosampler RE (%) ([3]; plasma, nominal 30.0 µg/mL): 4.74% | Stability Freeze-Thaw RE (%) ([3]; plasma, nominal 30.0 µg/mL): -0.10% | Stability Long-Term RE (%) ([3]; plasma, nominal 30.0 µg/mL): -8.41% | Stability Autosampler RE (%) ([3]; spleen, nominal 0.3 µg/mL): -7.70% | Stability Freeze-Thaw RE (%) ([3]; spleen, nominal 0.3 µg/mL): -9.57% | Stability Long-Term RE (%) ([3]; spleen, nominal 0.3 µg/mL): -9.67% | Stability Autosampler RE (%) ([3]; spleen, nominal 3.0 µg/mL): -6.71% | Stability Freeze-Thaw RE (%) ([3]; spleen, nominal 3.0 µg/mL): -2.65% | Stability Long-Term RE (%) ([3]; spleen, nominal 3.0 µg/mL): 2.22% | Stability Autosampler RE (%) ([3]; spleen, nominal 30.0 µg/mL): -0.99% | Stability Freeze-Thaw RE (%) ([3]; spleen, nominal 30.0 µg/mL): -4.22% | Stability Long-Term RE (%) ([3]; spleen, nominal 30.0 µg/mL): -2.12% | quantification of the coumarin inside the brain [4]: not possible to quantify
